These results are taken from patent US10577363B2, “Substituted piperidine compounds” (EPIZYME, INC., priority 2014, dated 2020).

For the assay, the target named is SMYD3 (Homo sapiens (Human), UniProt Q9H7B4). Nature of the assay: SMYD3 biochemical assay (SPA, 3H-SAM methylation of MEKK2 protein substrate). The conditions noted are these: read-out: SMYD3 Biochem IC50 (μM)*. An excerpt: S-adenosylmethionine (SAM), S-adenosylhomocysteine (SAH), Tris, Tween20, dimethylsulfoxide (DMSO), bovine skin gelatin (BSG), and Tris(2-carboxyethyl)phosphine hydrochloride solution (TCEP) were purchased from Sigma-Aldrich at the highest level of purity possible. ^3H-SAM was purchase from American Radiolabeled Chemicals with a specific activity of 80 Ci/mmol. 384-well opaque white OptiPlates and SPA beads (Perkin Elmer, catalog # RPNQ0013) were purchased from PerkinElmer.
N-terminally GST-tagged MEKK2 (MAP3K2) protein corresponding to reference sequence AAF63496.3 was purchased from Life Technologies (catalog # PV4010). This protein was expressed in High Five insect cells and purified to >85% purity. Protein identity was confirmed by MS/MS analysis after proteolytic digestion. The protein sequence used was:
Full-length human SMYD3 isoform 1 (BAB86333) was inserted into a modified pET21b plasmid containing a His6 tag and TEV and SUMO cleavage sites.
E. coli (BL21 codonplus RIL strain, Stratagene) were transformed with plasmid pEPZ553 by mixing competent cells and plasmid DNA and incubating on ice for 30 minutes followed by heat shock at 42° C. for 1 minute and cooling on ice for 2 minutes. Transformed cells were grown and selected on LB agar with 100 μg/mL ampicillin and 17 μg/mL chloramphenicol at 37° C. overnight. A single clone was used to inoculate 200 mL of LB medium with 100 μg/mL ampicillin and 17 μg/mL chloramphenicol and incubated at 37° C. on an orbital shaker at 180 rpm. Once in log growth, the culture was diluted 1:100 into 2 L of LB medium and grown until OD600 was about 0.3 after which the culture was incubated at 15° C. and 160 rpm. Once OD600 reached about 0.4, IPTG was added to a final concentration of 0.1 mM and the cells were grown overnight at 15° C. and 160 rpm. Cells were harvested by centrifugation at 8000 rpm, for 4 minutes at 4° C. and stored at −80° C. for purification.
The column was washed with Buffer B (Buffer A plus 20 mM imidazole) and His-tagged SMYD3 was eluted with Buffer C (Buffer A plus 300 mM imidazole). The His tag, TEV and SUMO cleavage sites were removed generating native SMYD3 by addition of ULP1 protein at a ratio of 1:200 (ULP1:SMYD3). Imidazole was removed by dialysis overnight in Buffer A. The dialyzed solution was applied to a second Nickel column and the native SMYD3 protein was collected from the column flow-through. The flow-through was dialyzed in Buffer D (25 mM Tris, 5% glycerol, 5 mM β-mercaptoethanol, 50 mM NaCl, pH7.8) and ULP1 was removed using a Q sepharose fast flow column.
General Procedure for SMYD3 Enzyme Assays on MEKK2 Protein Substrate
The assays were all performed in a buffer consisting of 25 mM Tris-Cl pH 8.0, 1 mM TCEP, 0.005% BSG, and 0.005% Tween 20, prepared on the day of use. […] DMSO (1 ul) was added to Columns 11, 12, 23, 24, rows A-H for the maximum signal control and 1 ul of SAH, a known product and inhibitor of SMYD3, was added to columns 11, 12, 23, 24, rows I-P for the minimum signal control. A cocktail (40 ul) containing the SMYD3 enzyme was added by Multidrop Combi (Thermo-Fisher). The compounds were allowed to incubate with SMYD3 for 30 min at room temperature, then a cocktail (10 ul) containing SAM and MEKK2 was added to initiate the reaction (final volume=51 ul). […] The assays were stopped by the addition of non-radiolabeled SAM (10 ul) to a final concentration of 100 uM, which dilutes the ^3H-SAM to a level where its incorporation into MEKK2 is no longer detectable. Radiolabeled MEKK2 was detected using a scintillation proximity assay (SPA). 10 uL of a 10 mg/mL solution of SPA beads in 0.5 M citric acid was added and the plates centrifuged at 600 rpm for 1 min to precipitate the radiolabeled MEKK2 onto the SPA beads. The plates were then read in a PerkinElmer TopCount plate reader to measure the quantity of ^3H-labeled MEKK2 as disintegrations per minute (dpm) or alternatively, referred to as counts per minute (cpm).
Regarding `C[C@H](N)CC(=O)NC[C@H](Cc1ccc(O)c(I)c1)C(=O)N1CCC(NC(=O)c2cc(C3CC3)on2)CC1` [compound 33, N-(1-((S)-3-((S)-3-aminobutanamido)-2-(4-hydroxy-3-iodobenzyl)propanoyl)piperidin-4-yl)-5-cyclopropylisoxazole-3-carboxamide], the IC50 came out at 0.473 µM. The result for `NCCC(=O)NC[C@@H](Cc1ccc(O)c(I)c1)C(=O)N1CCC(NC(=O)c2cc(C3CC3)on2)CC1` [compound 34, (R)-N-(1-(3-(3-aminopropanamido)-2-(4-hydroxy-3-iodobenzyl)propanoyl)piperidin-4-yl)-5-cyclopropylisoxazole-3-carboxamide] reads 1.64 µM; that for `NCCC(=O)NC[C@H](Cc1ccc(O)c(I)c1)C(=O)N1CCC(NC(=O)c2cc(C3CC3)on2)CC1` [compound 35, (S)-N-(1-(3-(3-aminopropanamido)-2-(4-hydroxy-3-iodobenzyl)propanoyl)piperidin-4-yl)-5-cyclopropylisoxazole-3-carboxamide], 0.117 µM. `NCC(=O)NC[C@@H](Cc1ccc(O)c(I)c1)C(=O)N1CCC(NC(=O)c2cc(C3CC3)on2)CC1` [compound 36, (R)-N-(1-(3-(2-aminoacetamido)-2-(4-hydroxy-3-iodobenzyl)propanoyl)piperidin-4-yl)-5-cyclopropylisoxazole-3-carboxamide]: the IC50 stood at 9.41 µM. `NCC(=O)NC[C@H](Cc1ccc(O)c(I)c1)C(=O)N1CCC(NC(=O)c2cc(C3CC3)on2)CC1` [compound 37, (S)-N-(1-(3-(2-aminoacetamido)-2-(4-hydroxy-3-iodobenzyl)propanoyl)piperidin-4-yl)-5-cyclopropylisoxazole-3-carboxamide]: the IC50 came out at 0.623 µM. For `Cc1ccc(C[C@H](CN)C(=O)N2CCC(NC(=O)c3cc(C4CC4)on3)CC2)cc1O` [compound 38, (R)-N-(1-(3-amino-2-(3-hydroxy-4-methylbenzyl)propanoyl)piperidin-4-yl)-5-cyclopropylisoxazole-3-carboxamide], the IC50 was 0.518 µM. As for `Cc1ccc(C[C@@H](CN)C(=O)N2CCC(NC(=O)c3cc(C4CC4)on3)CC2)cc1O` [compound 39, (S)-N-(1-(3-amino-2-(3-hydroxy-4-methylbenzyl)propanoyl)piperidin-4-yl)-5-cyclopropylisoxazole-3-carboxamide], the IC50 came to 14 µM.

For the compound `NCCCN1CCC(NC(=O)c2cc(C3CC3)on2)CC1` [compound 40, N-(1-(3-aminopropyl)piperidin-4-yl)-5-cyclopropylisoxazole-3-carboxamide], the IC50 amounted to 3.16 µM. `C[C@@H](N)C(=O)NC[C@@H](Cc1ccc(O)c(I)c1)C(=O)N1CCC(NC(=O)c2cc(C3CC3)on2)CC1` [compound 42, N-(1-((R)-3-((R)-2-aminopropanamido)-2-(4-hydroxy-3-iodobenzyl)propanoyl)piperidin-4-yl)-5-cyclopropylisoxazole-3-carboxamide]: the IC50 came out at 8.39 µM. Turning to `C[C@@H](N)C(=O)NC[C@H](Cc1ccc(O)c(I)c1)C(=O)N1CCC(NC(=O)c2cc(C3CC3)on2)CC1` [compound 43, N-(1-((S)-3-((R)-2-aminopropanamido)-2-(4-hydroxy-3-iodobenzyl)propanoyl)piperidin-4-yl)-5-cyclopropylisoxazole-3-carboxamide], the IC50 turned out to be 1.23 µM.

On to `C[C@@H](N)CC(=O)NC[C@@H](Cc1ccc(O)c(I)c1)C(=O)N1CCC(NC(=O)c2cc(C3CC3)on2)CC1` [compound 44, N-(1-((R)-3-((R)-3-aminobutanamido)-2-(4-hydroxy-3-iodobenzyl)propanoyl)piperidin-4-yl)-5-cyclopropylisoxazole-3-carboxamide], for which the IC50 was 13.8 µM. The result for `C[C@@H](N)CC(=O)NC[C@H](Cc1ccc(O)c(I)c1)C(=O)N1CCC(NC(=O)c2cc(C3CC3)on2)CC1` [compound 45, N-(1-((S)-3-((R)-3-aminobutanamido)-2-(4-hydroxy-3-iodobenzyl)propanoyl)piperidin-4-yl)-5-cyclopropylisoxazole-3-carboxamide] reads 0.479 µM; that for `C[C@H]1CN(C(=O)[C@H](N)Cc2ccc(O)cc2)CCC1NC(=O)c1cc(C2CC2)on1` (stereo partly drawn) [compound 47, N-((3S)-1-(D-tyrosyl)-3-methylpiperidin-4-yl)-5-cyclopropylisoxazole-3-carboxamide], 14.9 µM. The result for `C[C@@H]1CN(C(=O)[C@H](N)Cc2ccc(O)cc2)CCC1NC(=O)c1cc(C2CC2)on1` (stereo partly drawn) [compound 48, N-((3R)-1-(D-tyrosyl)-3-methylpiperidin-4-yl)-5-cyclopropylisoxazole-3-carboxamide] reads 14.9 µM; that for `C[C@H]1CN(C(=O)CN)CCC1NC(=O)c1cc(C2CC2)on1` (stereo partly drawn) [compound 49, 5-cyclopropyl-N-((3S)-1-glycyl-3-methylpiperidin-4-yl)isoxazole-3-carboxamide], 37.2 µM; that for `C[C@@H]1CN(C(=O)CN)CC[C@H]1NC(=O)c1cc(C2CC2)on1` [compound 50, 5-cyclopropyl-N-((3R,4R)-1-glycyl-3-methylpiperidin-4-yl)isoxazole-3-carboxamide], 9.72 µM. As for `C[C@@H]1CN(C(=O)CN)CC[C@@H]1NC(=O)c1cc(C2CC2)on1` [compound 51, 5-cyclopropyl-N-((3R,4S)-1-glycyl-3-methylpiperidin-4-yl)isoxazole-3-carboxamide], the IC50 is 12.7 µM. In the case of `C[C@H]1CC(NC(=O)c2cc(C3CC3)on2)CCN1C(=O)CN` (stereo partly drawn) [compound 52, 5-cyclopropyl-N-((2S)-1-glycyl-2-methylpiperidin-4-yl)isoxazole-3-carboxamide], the half-inhibitory concentration (IC50) was found to be 32.5 µM. The result for `C[C@@H]1C[C@@H](NC(=O)c2cc(C3CC3)on2)CCN1C(=O)CC1CCNCC1` [compound 53, 5-cyclopropyl-N-((2R,4S)-2-methyl-1-(2-(piperidin-4-yl)acetyl)piperidin-4-yl)isoxazole-3-carboxamide] reads 0.862 µM; that for `C[C@H]1C[C@@H](NC(=O)c2cc(C3CC3)on2)CCN1C(=O)CC1CCNCC1` [compound 54, 5-cyclopropyl-N-((2S,4S)-2-methyl-1-(2-(piperidin-4-yl)acetyl)piperidin-4-yl)isoxazole-3-carboxamide], 2.08 µM; that for `C[C@@H]1C[C@H](NC(=O)c2cc(C3CC3)on2)CCN1C(=O)CC1CCNCC1` [compound 55, 5-cyclopropyl-N-((2R,4R)-2-methyl-1-(2-(piperidin-4-yl)acetyl)piperidin-4-yl)isoxazole-3-carboxamide], 0.681 µM. With `C[C@@H]1C[C@@H](NC(=O)c2cc(C3CC3)on2)CCN1C(=O)[C@H]1CC[C@H](N)CC1` [compound 58, N-((2R,4S)-1-((1r,4R)-4-aminocyclohexane-1-carbonyl)-2-methylpiperidin-4-yl)-5-cyclopropylisoxazole-3-carboxamide], the IC50 amounted to 1.4 µM. As to `C[C@H]1C[C@@H](NC(=O)c2cc(C3CC3)on2)CCN1C(=O)[C@H]1CC[C@H](N)CC1` [compound 59, N-((2S,4S)-1-((1r,4S)-4-aminocyclohexane-1-carbonyl)-2-methylpiperidin-4-yl)-5-cyclopropylisoxazole-3-carboxamide], the IC50 turned out to be 7.97 µM. Turning to `C[C@H]1C[C@H](NC(=O)c2cc(C3CC3)on2)CCN1C(=O)[C@H]1CC[C@H](N)CC1` [compound 60, N-((2S,4R)-1-((1r,4S)-4-aminocyclohexane-1-carbonyl)-2-methylpiperidin-4-yl)-5-cyclopropylisoxazole-3-carboxamide], the IC50 is 1.41 µM.

As usually defined, the IC50 is the concentration needed to halve the response being measured.
